ChEMBL document CHEMBL1130295, “A QSAR study of antiplatelet agents using artificial neural network - correlation with micelle-water partition coefficient” (1997)

Assay: Antiplatelet activity as log (APA) by using artificial neural network (ANN) method
Assay type: functional

SMILES | Observed log APA
COC(=O)Nc1ccccc1-c1nc(C)c(-c2cccnc2)[nH]1 | 1.4
Cc1[nH]c(-c2ccccc2Cl)nc1-c1cccnc1 | 0.38
COc1cc(NC(C)=O)c([N+](=O)[O-])cc1-c1nc(C)c(-c2cccnc2)[nH]1 | 1.5
COc1cc2c(cc1-c1nc(C)c(-c3cccnc3)[nH]1)nc(O)n2C | 0.57
COc1c(-c2nc(C)c(-c3cccnc3)[nH]2)cc(Cl)c2[nH]c(C)nc12 | 1.3
COc1c(-c2nc(C)c(-c3cccnc3)[nH]2)cc(Cl)c2[nH]c(CCC(=O)O)nc12 | 0.4
CNC(=O)Nc1ccccc1-c1nc(C)c(-c2cccnc2)[nH]1 | 1.1
Cc1nc2cc(-c3nc(C)c(-c4cccnc4)[nH]3)c(C)cc2[nH]1 | 0.74
COc1cc(OC)c(-c2nc(C)c(-c3cccnc3)[nH]2)cc1NC(C)=O | 0.93
Cc1nc2cc(Cl)c(-c3nc(C)c(-c4cccnc4)[nH]3)cc2[nH]1 | 0.68
COc1c(-c2nc(C)c(-c3cccnc3)[nH]2)cc2nc(C)[nH]c2c1Cl | 1.4
COc1cc2[nH]c(C)nc2cc1-c1nc(C)c(-c2cccnc2)[nH]1 | 0.83
Cc1[nH]c(-c2ccccc2N)nc1-c1cccnc1 | 0.8
COc1c(-c2nc(C)c(-c3cccnc3)[nH]2)ccc2[nH]c(C)nc12 | 0.72
COc1ccccc1-c1nc(C)c(-c2cccnc2)[nH]1 | 1.1
Cc1[nH]c(-c2ccccc2F)nc1-c1cccnc1 | 1.4
COc1c(-c2nc(C)c(-c3cccnc3)[nH]2)cc2nc(O)[nH]c2c1Cl | 0.79
Cc1ccccc1-c1nc(C)c(-c2cccnc2)[nH]1 | 0.18
CCOC(=O)COc1ccccc1-c1nc(C)c(-c2cccnc2)[nH]1 | 0.6
CSc1ccccc1-c1nc(C)c(-c2cccnc2)[nH]1 | 0.95
CCOc1ccccc1-c1nc(C)c(-c2cccnc2)[nH]1 | 1.1
COc1cc(NC(C)=O)c(Cl)cc1-c1nc(C)c(-c2cccnc2)[nH]1 | 1.4
